Experimental data: the supplement of paper PMC10307832

How the values were obtained:
Test in all cases: relative viability (nuclei count vs DMSO), 5 days (fraction); higher = more cells survive
[1] = compound: CC1(COc2ccc3c(c2)ncn3-c2ccc3cccc(N4CCC(N)CC4)c3n2)COC1 [Crenolanib] + O=C(CCCCCCC(=O)Nc1ccccc1)NO [Vorinostat] (partner 1 µM)
Summary of the method: (§1)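 Cells from lung cancer lines were seeded into 1536-well plates and, one day later, dosed by pin tool. Treatments were either a single drug or a fixed dose of an anchor drug with five library-drug doses (not always all listed) in √10 steps. After 5 days, nuclei were stained in a one-step fixation (final 0.05% Triton X-100, 1% formaldehyde, 1 ug/ml Hoechst) and counted on 4× images, and relative viability is the treated-to-vehicle nuclei ratio, as the median of duplicate plates.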

[2] = compound: O=C1NC(=O)[C@@H](c2cn3c4c(cccc24)CCC3)[C@@H]1c1c[nH]c2ccccc12 [Tivantinib] + CC1(C)CCC(c2ccc(Cl)cc2)=C(CN2CCN(c3ccc(C(=O)NS(=O)(=O)c4ccc(N[C@H](CCN5CCOCC5)CSc5ccccc5)c(S(=O)(=O)C(F)(F)F)c4)cc3)CC2)C1 [Navitoclax] (partner 0.5 µM)
Summary of the method: as §1

[3] = compound: CC1(COc2ccc3c(c2)ncn3-c2ccc3cccc(N4CCC(N)CC4)c3n2)COC1 [Crenolanib] + COc1cccc2cc(-c3nc([C@H]4CC[C@H](C(=O)O)CC4)n4ncnc(N)c34)[nH]c12 [OSI-027] (partner 0.5 µM)
Summary of the method: as §1

[4] = compound: O=C1NC(=O)[C@@H](c2cn3c4c(cccc24)CCC3)[C@@H]1c1c[nH]c2ccccc12 [Tivantinib] + C[C@]1(O)C[C@@H](c2nc(-c3ccc4ccc(-c5ccccc5)nc4c3)c3c(N)nccn32)C1 [Linsitinib] (partner 1 µM)
Summary of the method: as §1

Cell Line	relative viability ([1]; first compound 0.01 µM)	relative viability ([1]; first compound 0.03162 µM)	relative viability ([1]; first compound 0.1 µM)	relative viability ([1]; first compound 0.3162 µM)	relative viability ([1]; first compound 1 µM)	relative viability ([2]; first compound 0.01 µM)	relative viability ([2]; first compound 0.03162 µM)	relative viability ([2]; first compound 0.1 µM)	relative viability ([2]; first compound 0.3162 µM)	relative viability ([3]; first compound 0.01 µM)	relative viability ([3]; first compound 0.03162 µM)	relative viability ([3]; first compound 0.1 µM)	relative viability ([3]; first compound 0.3162 µM)	relative viability ([3]; first compound 1 µM)	relative viability ([4]; first compound 0.01 µM)	relative viability ([4]; first compound 0.03162 µM)	relative viability ([4]; first compound 0.1 µM)	relative viability ([4]; first compound 0.3162 µM)
201T	0.985	1	0.929	0.955	0.983	1.12	1.17	1.17	1.18	0.505	0.605	0.695	0.763	0.692	1.03	1.03	0.971	0.954
A549						1.28	1.15	1.19	1.2						0.691	0.545	0.539	0.368
A-427	0.848		0.848	0.946	0.83	0.893	0.882	0.924	0.951	0.519	0.54	0.421	0.48	0.431	1.12	1.12	1.12	1.05
ABC-1	0.991	0.679	1.13	1.17	0.934					0.526	0.536	0.522	0.531	0.45	0.767	0.826	0.557	0.646
BEN	0.569	0.516	0.581	0.595	0.555	0.0556	0.0502	0.07	0.0718	0.302	0.339	0.305	0.321	0.314	0.998	0.725	0.826	0.693
CAL-12T	0.781	0.67	0.631	0.966	0.66	1.2	1.3	1.16	1.03	0.844	0.634	0.643	0.712	0.693	0.785	0.812	0.709	0.397
COR-L23	0.553	0.559	0.394	0.5	0.476	1.18	1.09	0.998	1.19	0.721	0.849	0.654	0.81	0.714	0.914	0.884	0.862	0.848
COR-L 105	0.842	0.957	0.904	1.08	0.922	0.856	0.867	0.748	0.626	0.842	0.783	0.642	1	0.691	0.824	0.695	0.985	0.578
Calu-6						0.866	0.996	0.807	0.716						1.02	1.04		0.963
ChaGo-K-1	0.721	0.81	0.724	0.745	0.793	1.11	0.845	0.97	1.1	0.659	0.634	0.572	0.631	0.594				
EBC-1						0.505	0.46	0.414	0.293						0.902	0.626	0.842	0.86
EKVX	0.928	0.752	0.722	0.888	0.654	0.996	0.953	0.929	0.433	0.737	0.78	0.69	0.683	0.737	1	0.898	0.915	0.25
EMC-BAC-2	0.47		0.485	0.447	0.303	1.14	1.12	1.18	1.05	0.438	0.376	0.411	0.424	0.398	0.842	0.808	0.768	0.666
EPLC-272H	0.435	0.622	0.469	0.308	0.584	1.12	1.27	1.05	1.01	0.315	0.288	0.249	0.296	0.329	1.07	1.22	1.19	0.931
H3255	0.811	0.744	0.838	0.853	0.726	0.559	0.564	0.508		0.586	0.544	0.514	0.573	0.588	0.95	0.864	0.943	
HARA	0.568	0.499	0.532	0.626	0.502	1.14	1.13	1.12	1.14	0.639	0.501	0.319	0.591	0.396	1.05	0.882	0.882	0.303
HCC-15	0.954	0.888	0.844	0.877	0.775	0.728	0.628	0.684	0.698	0.742	0.695	0.676	0.616	0.393	0.89	0.796	0.857	0.911
HCC-44	1.06	1.05	1.19	1.06	1.05	0.971	0.935	1.06	0.872	0.498	0.496	0.611	0.519	0.434	0.707	0.589	0.745	0.641
HCC-78	0.441	0.424	0.493	0.433	0.386	0.853	0.683	0.8	0.3	0.433	0.32		0.345	0.338	0.553	0.422	0.477	0.286
HCC-366	0.377	0.357	0.335	0.426	0.216	0.951	1.14	1.03	1.07	0.978	0.861	0.837	0.893	0.75	0.634	0.543	0.542	0.585
HCC-827	0.985	0.837	0.809	0.7	0.753	1.04	1.05	0.926	1.02	0.793	0.691	0.742	0.885	0.821	1.03	0.991	0.96	0.953
HOP-62	0.653	0.542	0.635	0.829	0.552	0.9	0.859	1.07	1.02	0.868	0.833	0.872	1.03	0.722	1.02		1.11	1.15

Cell Line	relative viability ([1]; first compound 0.01 µM)	relative viability ([1]; first compound 0.03162 µM)	relative viability ([1]; first compound 0.1 µM)	relative viability ([1]; first compound 0.3162 µM)	relative viability ([1]; first compound 1 µM)	relative viability ([2]; first compound 0.01 µM)	relative viability ([2]; first compound 0.03162 µM)	relative viability ([2]; first compound 0.1 µM)	relative viability ([2]; first compound 0.3162 µM)	relative viability ([3]; first compound 0.01 µM)	relative viability ([3]; first compound 0.03162 µM)	relative viability ([3]; first compound 0.1 µM)	relative viability ([3]; first compound 0.3162 µM)	relative viability ([3]; first compound 1 µM)	relative viability ([4]; first compound 0.01 µM)	relative viability ([4]; first compound 0.03162 µM)	relative viability ([4]; first compound 0.1 µM)	relative viability ([4]; first compound 0.3162 µM)
IA-LM	1.06	0.971	0.956	0.905	0.678	0.973	0.792	0.743	0.795						0.593		0.586	0.538
LC-2-ad	0.726	0.674	0.67	0.736	0.679	0.375	0.436	0.438	0.308	0.939	0.793	0.792	0.706	0.554	0.917	0.772	0.837	0.741
LCLC-97TM1	0.822	0.83	0.792	0.832	0.536	0.423	0.28	0.358	0.398	0.601	0.51	0.469	0.667	0.374	0.176	0.174	0.174	0.14
LCLC-103H	0.752	0.791	0.754	0.811	0.746					0.443	0.507	0.397	0.466	0.384	1.03	0.944	1.03	0.996
LK-2	0.326	0.259	0.273	0.354	0.311	0.913		0.705	0.83	0.208	0.195	0.233	0.17	0.183	0.816		0.497	0.355
LOU-NH91	0.996	0.913	0.878	0.886	0.867	0.651	0.637	0.622	0.355	0.765	0.729	0.642	0.717	0.624	0.859	0.884	0.958	0.536
LU99A	0.58	0.576	0.43	0.501	0.455	0.758	0.789	0.767	0.486	0.305	0.318	0.257	0.331	0.264	0.537	0.54	0.523	0.384
LXF-289	0.734	0.798	0.712	0.723	0.637	0.987	0.949	0.93	0.933	0.844	0.764	0.752	0.786	0.706	0.982	0.971	0.906	0.927
NCI-H358	0.784	0.71	0.633	0.729	0.611					0.849	0.777	0.675	0.744	0.565	0.725	0.717	0.617	0.328
NCI-H522	1	0.876	0.855	0.92	0.8					0.936	0.708	0.728	0.655	0.72				
NCI-H650	0.408	0.42	0.468	0.368	0.417					0.564	0.534	0.52	0.492	0.348	0.997		0.774	0.973
NCI-H661	0.772	0.778	0.813	0.845	0.846					0.757	0.721	0.744	0.854	0.776	0.658	0.442	0.628	
NCI-H1299						1.01	0.998	1.06	1.05						0.941	0.946	0.92	1.04
NCI-H1563										0.768	0.807	0.764	0.752	0.748	1.22	1.25	1.07	1.1
NCI-H1623										0.434	0.405	0.418	0.437	0.387				
NCI-H1648	0.599		0.293	0.466	0.433					0.245	0.271	0.247	0.26	0.251				
NCI-H1650	0.454	0.516	0.582	0.812	0.676	1.33	1.33	0.987	0.929	0.666	0.696	0.691	0.667	0.46				
NCI-H1703						1.51	1.29	1.19	0.833						0.828	0.456	0.783	0.687
NCI-H1792						0.619	0.66	0.651	0.816	0.756	0.82	0.691	0.723	0.647	0.596	0.431	0.512	0.323
NCI-H2170	0.793	0.928	0.697	0.985	0.793	0.655	0.555	0.534		0.82	0.744	0.706	0.828	0.669				
NCI-H2342	0.729	0.682	0.688	0.788	0.691					0.704	0.599	0.592	0.726	0.594				
SW 900	0.548		0.428	0.574	0.435					0.677	0.575	0.46	0.657	0.342				
